Measured values taken from US20220023317A1, “PREVENTING OR MITIGATING CHEMOTHERAPY INDUCED ALOPECIA USING VITAMIN D” (Berg LLC, priority 2013, published 2022).

Key:
HEKa cells = test: Keratinocyte growth with calcitriol titration; type: cell-based, human; details: titration 0.008-2.0 μg/mL
Procedure: All experiments were conducted in 96-well plate format. Each well contained the same amount of HEKa cells in about 100 μL of media (usually between 2,000-5,000 cell/well). Calcitriol was dissolved in ethanol to make a stock solution. The stock solution was serially diluted 1:2 in the growth media, covering a range of between 4.0 μg/mL to about 15.5 ng/mL (9 test concentrations). […] All experiments were conducted in duplicates.

PaCa2 = test: Cell growth / viability assay; type: cell-based
NCI-ES-0808 = test: Cell growth / viability assay; type: cell-based
MCF-7 = test: Cell growth / viability assay; type: cell-based
PC-3 = test: Cell growth / viability assay; type: cell-based; details: 0.1 μg/mL calcitriol for two passages
Procedure: In these experiments, a selected commercial drug was serially diluted, starting at a concentration 4-times higher than the final desired concentration for cell incubation. […] The drug treatment period was usually three days. At the end of the three days, the background OD of the 96-well plate was read at 280 nm, before 20 μL of the “Substrate Cell Titer 96 Aqueous One Solution Reagent” (Promega) was added to each well. […] The net OD increase was calculated by subtracting the pre-substrate OD reading. The impact of the drug on the cells was calculated by comparing the OD at different concentrations in relation to the OD of the control wells (without the drug). The results of the Net OD as a function of drug concentration was plotted and used to determine ED50 values. […] Then these pretreated cells were utilized to set up the cell based assay.

[1] = Quantification of calcitriol in ex vivo porcine skin layers; design: species or system minipig
Description: The skin sections were weighed and the weight recorded.

MIAC51 = test: Cure / survival rate of chloroleukemic rats after chemotherapy; type: in vivo, rat; details: for Cured (number of rats): of 40
Procedure: On day 5 after birth all rats received 1×105 MIAC51 intraperitoneally in 0.1 mL of serum free (SF) RPMI. MIAC51 were cultured in RPMI 1640 supplemented with L-glutamine and 10% fetal bovine serum at […] in a 5% CO2, 100% humidity incubator. Cells were grown to 50% confluency (1.5×106 mL) collected in 50 mL conical tubes, centrifuged at 600 g for 10 minutes at room temperature and resuspended in SF-RPMI at a concentration of 1×10^6/mL prior to injection.

[2] = 4-week dermal toxicity study in Gottingen Minipigs; details: both, Gottingen, minipig, in vivo
Procedure: (§1) Observations for morbidity, mortality, injury, and the availability of food and water were conducted twice daily for all animals. Clinical observations were conducted weekly.

Gottingen Minipig = test: 4-week dermal toxicity study in Gottingen Minipigs; details: dermal, twice daily, 29 days, 2.1 mL over 450 cm^2
Procedure: as §1

Sprague Dawley rats = test: Neonatal rat model of CIA, 1,25(OH)2D3 in ethanol; type: in vivo; details: 0.2 μg in 150 μL ethanol topical, days 5-10; CTX 35 mg/kg; all 10 animals
Description: Neonatal Rat model and PCA model. Sprague Dawley rats were purchased from Charles River Laboratories (Wilmington, Mass.). C3H/HeJ mouse were purchased from Jackson Laboratories (Bar Harbour, Me.).Rodents were housed and fed according to NIH guidelines. For experiments involving chemotherapy, cyclophosphamide was purchased from Mead Johnson (Evansville, Ind.) and Etoposide was obtained from Bristol-Myers (Evansville, Ind.). 1,25(OH)2D3 powder was a gift from Dr. Uskokovic (Hoffman-La Roche, Nutley, N.J.). For experiments involving C3H/HeJ mice, 1,25(OH)2D3 was purchased from Sigma (St. Louis, Mo.). Topical application of 1,25(OH)2D3. 1,25(OH)2D3 was dissolved in absolute ethanol and applied topically with an applicator. Control animals were similarly treated with vehicle only. […] For CIA experiments, 1,25(OH)2D3 was given daily beginning on day 5 after birth and ending on day 10. […] For CIA and PCA, the experimental group was treated with 0.2 μg of 1,25(OH)2D3 in 150 μL of absolute ethanol applied topically over the head and neck. In both instances, the control group received ethanol vehicle only. Cyclophosphamide (35 mg/kg) was given intraperitoneally for one day only. […] Both chemotherapies were started at 11 days of age. Alopecia was recorded on the tenth day after the first dose of chemotherapy.

C57BL/6 mice = details: topical calcitriol; cited from earlier work
BALB/c mice = details: cited from earlier work
[3] = 0.1 μg/mL calcitriol for two passages
[4] = Female Minipigs, 10 μg/mL, mean ± SD
[5] = Female Minipigs, 30 μg/mL, mean ± SD
[6] = Male Minipig (1 animal), 100 μg/mL, mean ± SD
[7] = Male Minipigs, 3 μg/mL, mean ± SD
[8] = Male Minipigs, 10 μg/mL, mean ± SD
[9] = Male Minipigs, 30 μg/mL, mean ± SD
[10] = ADM + paclitaxel + etoposide, after two rounds
[11] = CTX + ADM + ARA-C, after two rounds
[12] = CTX + paclitaxel + etoposide, after two rounds
[13] = CTX, after two rounds of chemotherapy

SMILES: C=C1/C(=C\C=C2/CCC[C@]3(C)[C@@H]([C@H](C)CCCC(C)(C)O)CC[C@@H]23)C[C@@H](O)C[C@@H]1O [Calcitriol, (1a.3B.5Z.7E)-9,10-secocholesta-5,7,10(19)-triene-1,3,25-triol]
- stimulation of HEKa cell growth (HEKa cells; lowest levels of calcitriol): 10-20%
- calcitriol concentration at which cell growth is inhibited (HEKa cells): ≥ 1.0 µg/mL
- effect of calcitriol on cell growth (PaCa2): no significant growth promoting or growth inhibiting effects
- effect of calcitriol on cytotoxic effect of Doxorubicin (PaCa2): did not appear to appreciably alter
- response to doxorubicin, cisplatin, erlotinib after calcitriol exposure (PaCa2; [3]): did not alter
- 5-FU ED50 curve with vs without calcitriol (PaCa2; 0.1 μg/mL calcitriol supplement): not significantly different
- effect of calcitriol on cell growth (NCI-ES-0808): no significant growth promoting or growth inhibiting effects
- effect of calcitriol on cytotoxic effect of Doxorubicin (NCI-ES-0808): did not appear to appreciably alter
- effect of calcitriol on cytotoxic effect of Doxorubicin (MCF-7): did not appear to appreciably alter
- response to doxorubicin, cisplatin, erlotinib after calcitriol exposure (MCF-7; [3]): did not alter
- concentrations giving growth inhibition (MCF-7; high concentrations): > 0.5 µg/mL
- concentrations giving growth stimulation (MCF-7; low concentrations): 0.05 to 0.25 µg/mL
- response to doxorubicin, cisplatin, erlotinib after calcitriol exposure (PC-3): did not alter
- Stratum Corneum calcitriol recovered ([1]; Female Minipigs, 1 μg/mL, mean ± SD): 0.76 ± 1.3 (3) ng/cm^2
- Dermis calcitriol recovered ([1]; Female Minipigs, 1 μg/mL, zero = below Lower Limit of Detection): 0 ± 0 (3) ng/mg
- Stratum Corneum calcitriol recovered ([1]; Female Minipigs, 3 μg/mL, mean ± SD): 1.12 ± 1.49 (3) ng/cm^2
- Dermis calcitriol recovered ([1]; Female Minipigs, 3 μg/mL, zero = below Lower Limit of Detection): 0 ± 0 (3) ng/mg
- Epidermis calcitriol recovered [1, 4]: 0.02 ± 0.04 (3) ng/mg
- Stratum Corneum calcitriol recovered [1, 4]: 1.65 ± 1.80 (3) ng/cm^2
- Dermis calcitriol recovered ([1]; Female Minipigs, 10 μg/mL, zero = below Lower Limit of Detection): 0.0 ± 0.0 (3) ng/mg
- Epidermis calcitriol recovered [1, 5]: 0.34 ± 0.24 (3) ng/mg
- Stratum Corneum calcitriol recovered [1, 5]: 20.2 ± 11.7 (3) ng/cm^2
- Dermis calcitriol recovered ([1]; Female Minipigs, 30 μg/mL, zero = below Lower Limit of Detection): 0.0 ± 0.0 (3) ng/mg
- Dermis calcitriol recovered [1, 6]: 0.13 ± 0.04 (1) ng/mg
- Epidermis calcitriol recovered [1, 6]: 2.09 ± 1.0 (1) ng/mg
- Stratum Corneum calcitriol recovered [1, 6]: 118.1 ± 11.4 (1) ng/cm^2
- Epidermis calcitriol recovered ([1]; Male Minipigs, 1 μg/mL, mean ± SD): 0.16 ± 0.28 (3) ng/mg
- Stratum Corneum calcitriol recovered ([1]; Male Minipigs, 1 μg/mL, twice daily 7 days, mean ± SD): 56.1 ± 17.4 (3) ng/cm^2
- Dermis calcitriol recovered ([1]; Male Minipigs, 1 μg/mL, zero = below Lower Limit of Detection): 0.0 ± 0.0 (3) ng/mg
- Epidermis calcitriol recovered [1, 7]: 0.14 ± 0.23 (3) ng/mg
- Stratum Corneum calcitriol recovered [1, 7]: 62.4 ± 7.91 (3) ng/cm^2
- Dermis calcitriol recovered ([1]; Male Minipigs, 3 μg/mL, zero = below Lower Limit of Detection): 0.0 ± 0.0 (3) ng/mg
- Epidermis calcitriol recovered [1, 8]: 0.23 ± 0.20 (3) ng/mg
- Stratum Corneum calcitriol recovered [1, 8]: 59.6 ± 14.1 (3) ng/cm^2
- Dermis calcitriol recovered ([1]; Male Minipigs, 10 μg/mL, zero = below Lower Limit of Detection): 0.0 ± 0.0 (3) ng/mg
- Epidermis calcitriol recovered [1, 9]: 0.38 ± 0.33 (3) ng/mg
- Stratum Corneum calcitriol recovered [1, 9]: 54.6 ± 32.5 (3) ng/cm^2
- Dermis calcitriol recovered ([1]; Male Minipigs, 30 μg/mL, zero = below Lower Limit of Detection): 0.0 ± 0.0 (3) ng/mg
- % cured / survival rate (MIAC51; [10]): 80%
- Cured (number of rats) (MIAC51; [10]): 32
- % cured / survival rate (MIAC51; [11]): 78%
- Cured (number of rats) (MIAC51; [11]): 31
- % cured / survival rate (MIAC51; CTX + ADM, after two rounds): 50%
- Cured (number of rats) (MIAC51; CTX + ADM, after two rounds): 20
- % cured / survival rate (MIAC51; [12]): 83%
- Cured (number of rats) (MIAC51; [12]): 33
- % cured / survival rate (MIAC51; [13]): 25%
- Cured (number of rats) (MIAC51; [13]): 10
- effect on efficacy of the chemotherapy agents (MIAC51; calcitriol 2 μg/mL): did not affect the efficacy of the chemotherapy agents
- NOAEL at 29 days [2]: 3.33 µg/kg
- no-observed-adverse-effect-level (NOAEL) (Gottingen Minipig): 10.31 µg/mL
- protection from cyclophosphamide-induced alopecia (Sprague Dawley rats): did not develop alopecia
- follicular apoptosis induced by cyclophosphamide (C57BL/6 mice): significantly diminish the degree of follicular apoptosis
- protective effect in tumor-bearing male mice (BALB/c mice; injected with EMT-6 murine breast tumor cells): diminished
- degree of CIA (BALB/c mice; male mice, topical 5 days prior to i.p. cyclophosphamide): significantly reduced the degree of CIA in a dose-dependent manner
